# In patent publication US9783545B2, “Pyrazolopyridazines and methods for treating retinal-degenerative diseases and hearing loss associated with usher syndrome” (Usher III Initiative, Inc., priority 2012, dated 2017):
# Target: T1, N48K Clarin-1 (Homo sapiens, UniProt P58418, N48K)
# T1 construct: expressed in transfected cells
# T1 sequence (P58418 1-232 N48K): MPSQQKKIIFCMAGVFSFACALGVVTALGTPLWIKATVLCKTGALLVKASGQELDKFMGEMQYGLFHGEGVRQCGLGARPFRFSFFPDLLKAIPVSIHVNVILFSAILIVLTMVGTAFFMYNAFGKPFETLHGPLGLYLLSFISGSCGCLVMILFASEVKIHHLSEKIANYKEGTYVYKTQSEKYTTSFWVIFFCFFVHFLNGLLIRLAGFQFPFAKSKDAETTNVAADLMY
# Test: Restoration of expression of N48K Clarin-1, 24 hour incubation (high content imaging of HA-tagged N48K Clarin-1)
# Type: cell-based
# Set-up: IC50: scale not given here
# Conditions: HEK293-Clarin-1 N48K-HA D9 cell line, 24 hr incubation with compound
# Method: Assay Method Showing Activity of Compounds of the Invention that Restore Expression of N48K Clarin-1 (24 hour incubation)
# Clarin-1 is the protein encoded by the gene mutated in Usher III Syndrome (Adato et al., 2002). The most prevalent mutation in Clarin-1 in North America is N48K, which is reported to cause loss of glycosylation and a trafficking defect (Tian et al., 2009). […] Thus it is believed that restoring the trafficking of N48K Clarin-1 to the cell surface provides an avenue of intervention for Usher III Sydrome.
# In a typical experiment, these cells were seeded on collagen-coated 96-well plates at a cell density of 20,000 cells per well in Dulbecco's Modified Eagle Medium (DMEM) contain 10% fetal bovine serum in a humidified incubator at 37° C., 5% CO2. After an overnight incubation, compounds were added for a 24 hr incubation in DMEM medium contain 10% fetal bovine serum in a humidified incubator at 37° C., 5% CO2. As a negative control, DMSO was used at 0.25% final concentrations. Compounds were typically tested in triplicate fashion. After the 24 hr incubation with compounds, the cells were fixed by the addition of 10% buffered formalin to the wells to achieve a final concentration of 4% formalin. After a 20 min fixation at room temperature, wells were washed three times with phosphate-buffered saline (PBS) containing Triton X-100 (0.02 phosphate, 150 mM NaCl, 0.1% Triton X-100).
# The HA-tagged N48K Clarin-1 was detected with an antibody against the HA tag (HA.11 Clone 16B12 Monoclonal antibody, Covance #MMS-101P) at a dilution of 1:1000 in PBS containing Triton X-100. After a 90 min incubation, wells were washed three times with PBS containing Triton X-100, and a secondary antibody (Goat anti-mouse IgG-Cy3 (1.5 mg/ml), Jackson IR Europe #115165003) was added to the wells at a dilution of 1:250 in PBS containing Triton X-100 for 45 min. Wells were subsequently washed three times with PBS containing Triton X-100, and a final staining for nuclei was performed by the addition of DAPI (4′,6-diamidino-2-phenylindole) at a dilution of 1:10,000. The imaging of the stained cells was performed on an InCell 1000 High Content Imager (GE Healthcare), reading out the Cy3 channel for N48K Clarin-1 and the DAPI channel for nuclei. The images were analyzed and quantitated using a specific algorithm. This algorithm measured the HA-Clarin-1 staining for each cell based on the additional nuclear segmentation of the DAPI signal (FIG. 1). This algorithm measured the intensity per cell, and thus it is less sensitive for variation in cell number. Per well, approximately 2,000 cells were measured to achieve an average density per cell measurement. FIG. 1 illustrates high content analysis. DAPI-stained nuclei are used to perform segmentation of the image into individual cells. The density observed in the N48K Clarin-1 channel (Cy3) is then calculated per cell averaged over a field.
row,SMILES,IC50
1,"OCCn1nc(C2CC2)c2c(Cl)c(-c3ccccc3)nnc21 [Iff, 2-(4-chloro-3-cyclopropyl-5-phenyl-pyrazolo[3,4-c]pyridazin-1-yl)ethanol]","A, B"

# Same assay, conditions: HEK293-Clarin-1 N48K-HA D9 cell line, 24 hr incubation with compound; read-out: IC50 (the source's name)
row,SMILES,EC50
1,"Cc1nn(C)c2nnc(-c3cccc(F)c3)c(Cl)c12 [Compound 25, 4-chloro-5-(3-fluorophenyl)-1,3-dimethyl-pyrazolo[3,4-c]pyridazine]",≤ 2 µM
2,"Cc1nn(C)c2nnc(-c3ccccc3)c(F)c12 [Compound 24, 4-fluoro-1,3-dimethyl-5-phenyl-pyrazolo[3,4-c]pyridazine]",≤ 2 µM
3,"CN1CCN(CCn2nc(C3=CCOCC3)c3c(Cl)c(-c4ccccc4)nnc32)CC1 [If, 4-chloro-3-(3,6-dihydro-2H-pyran-4-yl)-1-(2-(4-methylpiperazin-1-yl)ethyl)-5-phenyl-1H-pyrazolo[3,4-c]pyridazine]",≤ 2 µM
4,"Cc1nn(CC(=O)N2CCCC2)c2nnc(-c3ccccc3)c(Cl)c12 [Iw, 2-(4-chloro-3-methyl-5-phenyl-pyrazolo[3,4-c]pyridazin-1-yl)-1-pyrrolidin-1-yl-ethanone]",2 to 5 µM
5,"CN1CCN(CCn2nc(-c3cc4ccccc4o3)c3c(Cl)c(-c4ccccc4)nnc32)CC1 [Ij, 3-(benzofuran-2-yl)-4-chloro-1-(2-(4-methylpiperazin-1-yl)ethyl)-5-phenyl-1H-pyrazolo[3,4-c]pyridazine]",≤ 2 µM
6,"Clc1c(-c2ccccc2)nnc2[nH]nc(C3CC3)c12 [Idd, 4-chloro-3-cyclopropyl-5-phenyl-1H-pyrazolo[3,4-c]pyridazine]",≤ 2 µM
7,"Cn1nc(-c2ccccc2)c2c(Cl)c(-c3cccnc3)nnc21 [IIId, 4-chloro-1-methyl-3-phenyl-5-(3-pyridyl)pyrazolo[3,4-c]pyridazine]",≤ 2 µM
8,"Clc1c(-c2ccccc2)nnc2c1c(-c1ccccc1)nn2Cc1ccncc1 [IIo, 4-chloro-3,5-diphenyl-1-(4-pyridylmethyl)pyrazolo[3,4-c]pyridazine]",≤ 2 µM
9,"Cc1nn(CCO)c2nnc(-c3ccccc3)c(Cl)c12 [Ihh, 2-(4-chloro-3-methyl-5-phenyl-pyrazolo[3,4-c]pyridazin-1-yl)ethanol]",≤ 2 µM
10,"Cn1nc(-c2cccnc2)c2c(Cl)c(-c3ccccc3)nnc21 [Compound 26, 4-chloro-1-methyl-5-phenyl-3-(3-pyridyl)pyrazolo[3,4-c]pyridazine]",≤ 2 µM
11,"Clc1c(-c2ccccc2)nnc2[nH]nc(Br)c12 [Ibb, 3-bromo-4-chloro-5-phenyl-1H-pyrazolo[3,4-c]pyridazine]",2 to 5 µM
12,"Cc1n[nH]c2nnc(-c3ccccc3)c(Cl)c12 [Iu, 4-chloro-3-methyl-5-phenyl-1H-pyrazolo[3,4-c]pyridazine]",2 to 5 µM
13,"Cn1nc(C2CC2)c2c(Cl)c(-c3ccccc3)nnc21 [Compound 21, 4-chloro-3-cyclopropyl-1-methyl-5-phenyl-pyrazolo[3,4-c]pyridazine]",2 to 5 µM
14,"O=C(Cn1nc(C2=CCCC2)c2c(Cl)c(-c3ccccc3)nnc21)N1CCCC1 [In, 2-(4-chloro-3-(cyclopent-1-en-1-yl)-5-phenyl-1H-pyrazolo[3,4-c]pyridazin-1-yl)-1-(pyrrolidin-1-yl)ethanone]",≤ 2 µM
15,"FC(F)(F)CCn1nc(-c2ccccc2)c2c(Cl)c(-c3ccccc3)nnc21 [IId, 4-chloro-3,5-diphenyl-1-(3,3,3-trifluoropropyl)pyrazolo[3,4-c]pyridazine]",≤ 2 µM
16,"Cn1nc(C2CCCC2)c2c(Cl)c(-c3ccccc3)nnc21 [Compound 27, 4-chloro-3-cyclopentyl-1-methyl-5-phenyl-pyrazolo[3,4-c]pyridazine]",2 to 5 µM
17,"CN1CCN(CCn2nc(-c3cccc(C(=O)N4CCCC4)c3)c3c(Cl)c(-c4ccccc4)nnc32)CC1 [Id, (3-(4-chloro-1-(2-(4-methylpiperazin-1-yl)ethyl)-5-phenyl-1H-pyrazolo[3,4-c]pyridazin-3-yl)phenyl)(pyrrolidin-1-yl)methanone]",≤ 2 µM

row,SMILES,EC50
1,"CN1CCN(CCn2nc(-c3ccc(C(F)(F)F)nc3)c3c(Cl)c(-c4ccccc4)nnc32)CC1 [Ih, 4-chloro-1-(2-(4-methylpiperazin-1-yl)ethyl)-5-phenyl-3-(6-(trifluoromethyl)pyridin-3-yl)-1H-pyrazolo[3,4-c]pyridazine]",2 to 5 µM
2,"CN1CCN(CCn2nc(I)c3c(Cl)c(-c4ccccc4)nnc32)CC1 [Ia, 4-Chloro-3-iodo-1-(2-(4-methylpiperazin-1-yl)ethyl)-5-phenyl-1H-pyrazolo[3,4-c]pyridazine]",≤ 2 µM
3,"Cc1nn(C)c2nnc(-c3ccccc3)c(Br)c12 [Compound 23, 4-bromo-1,3-dimethyl-5-phenyl-pyrazolo[3,4-c]pyridazine]",2 to 5 µM
4,"CN1CCN(CCn2ncc3c(Cl)c(-c4ccccc4)nnc32)CC1 [Ib, 4-Chloro-1-(2-(4-methylpiperazin-1-yl)ethyl)-5-phenyl-1H-pyrazolo[3,4-c]pyridazine]",5 to 21 µM
5,"O=C1CCCN1CCn1nc(-c2cccc(F)c2)c2c(Cl)c(-c3ccccc3)nnc21 [IIr, 1-[2-[4-chloro-3-(3-fluorophenyl)-5-phenyl-pyrazolo[3,4-c]pyridazin-1-yl]ethyl]pyrrolidin-2-one]",≤ 2 µM
6,"Cn1nc(-c2ccccc2)c2c(Cl)c(-c3ccsc3)nnc21 [IIIc, 4-chloro-1-methyl-3-phenyl-5-(3-thienyl)pyrazolo[3,4-c]pyridazine]",≤ 2 µM
7,"Clc1c(-c2ccccc2)nnc2c1c(-c1ccccc1)nn2Cc1ccccn1 [IIp, 4-chloro-3,5-diphenyl-1-(2-pyridylmethyl)pyrazolo[3,4-c]pyridazine]",≤ 2 µM
8,"Clc1c(-c2ccccc2)nnc2c1c(-c1ccccc1)nn2C1CCOCC1 [IIe, 4-chloro-3,5-diphenyl-1-tetrahydropyran-4-yl-pyrazolo[3,4-c]pyridazine]",≤ 2 µM
9,"CN1CCN(CCn2nc3nnc(-c4ccccc4)c(Cl)c3c2I)CC1 [Compound 20, 4-Chloro-3-iodo-2-(2-(4-methylpiperazin-1-yl)ethyl)-5-phenyl-2H-pyrazolo[3,4-c]pyridazine]",5 to 21 µM
10,"CN1CCN(CCn2nc(/C=C/c3ccccc3)c3c(Cl)c(-c4ccccc4)nnc32)CC1 [Ig, (E)-4-chloro-1-(2-(4-methylpiperazin-1-yl)ethyl)-5-phenyl-3-styryl-1H-pyrazolo[3,4-c]pyridazine]",≤ 2 µM
11,"FC(F)(F)Cn1nc(-c2ccccc2)c2c(Cl)c(-c3ccccc3)nnc21 [IIk, 4-chloro-3,5-diphenyl-1(2,2,2-trifluoroethyl)pyrazolo[3,4-c]pyridazine]",≤ 2 µM
12,"CC(=O)CCn1nc(-c2ccccc2)c2c(Cl)c(-c3ccccc3)nnc21 [IIm, 4-(4-chloro-3,5-diphenyl-pyrazolo[3,4-c]pyridazin-1-yl)butan-2-one]",≤ 2 µM
13,"CN1CCN(CCn2nc(-c3ccnc(C(F)(F)F)c3)c3c(Cl)c(-c4ccccc4)nnc32)CC1 [Ie, 4-chloro-1-(2-(4-methylpiperazin-1-yl)ethyl)-5-phenyl-3-(2-(trifluoromethyl)pyridin-4-yl)-1H-pyrazolo[3,4-c]pyridazine]",≤ 2 µM
14,"Cc1nn(C)c2nnc(-c3ccccc3)c(Cl)c12 [Compound 22, 4-chloro-1,3-dimethyl-5-phenyl-pyrazolo[3,4-c]pyridazine]",≤ 2 µM
15,"O=C(Cn1nc(C2CC2)c2c(Cl)c(-c3ccccc3)nnc21)N1CCCC1 [Iee, 2-(4-chloro-3-cyclopropyl-5-phenyl-pyrazolo[3,4-c]pyridazin-1-yl)-1-pyrrolidin-1-yl-ethanone]",2 to 5 µM
16,"CN(C)CCNC(=O)Cn1nc(-c2cccnc2)c2c(Cl)c(-c3ccccc3)nnc21 [Igg, 2-[4-chloro-5-phenyl-3-(3-pyridyl)pyrazolo[3,4-c]pyridazin-1-yl]-N-(2-dimethylaminoethyl)acetamide]",2 to 5 µM
